Bridge positions count the residues as written; N and C are the ends. Peptide text beside a SMILES is read from it. I, II: the chains in the order shown.
Assays:
Relaxin-3 receptor 2 [1] = target: T1, Relaxin-3 receptor 2 (Homo sapiens, UniProt Q8TDU9); assay: Competitive binding affinity to human RXFP4 receptor transfected in CHO-K1 cells in presence of europium-labeled Eu(A)-R3/I5 by fluorometric analysis; type: cell-based
Relaxin-3 receptor 2 [2] = target: T1, Relaxin-3 receptor 2; assay: Agonist activity at human RXFP4 transfected in CHO-K1 cells co-transfected with pCRE-beta-galactosidase reporter plasmid assessed as inhibition of forskolin-induced cAMP accumulation measured after 6 hrs by beta-galactosidase reporter gene assay; type: functional, cell-based

T1 sequence (Q8TDU9 whole entry): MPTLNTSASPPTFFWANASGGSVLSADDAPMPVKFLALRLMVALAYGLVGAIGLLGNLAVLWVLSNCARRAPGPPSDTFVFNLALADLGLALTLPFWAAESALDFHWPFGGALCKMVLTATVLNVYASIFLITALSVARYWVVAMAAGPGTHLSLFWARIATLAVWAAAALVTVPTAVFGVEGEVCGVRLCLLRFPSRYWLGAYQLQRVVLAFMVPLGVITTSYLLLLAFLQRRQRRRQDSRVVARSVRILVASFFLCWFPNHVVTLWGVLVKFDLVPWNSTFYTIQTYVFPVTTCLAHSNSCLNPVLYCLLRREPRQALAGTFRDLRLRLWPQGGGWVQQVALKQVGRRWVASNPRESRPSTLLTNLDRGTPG

| Ki (Relaxin-3 receptor 2 [1]) | EC50 (Relaxin-3 receptor 2 [2]) | SMILES |
| --- | --- | --- |
| 50.1 nM | 14.1 nM | CC[C@H](C)[C@@H]1NC(=O)[C@H](Cc2ccc(O)cc2)NC(=O)[C@H]([C@@H](C)CC)NC(=O)[C@H](C(C)C)NC(=O)[C@H]([C@@H](C)O)NC(=O)[C@H](CCCNC(=N)N)NC(=O)[C@H]([C@@H](C)CC)NC(=O)[C@H](Cc2ccc(O)cc2)NC(=O)[C@H](CCC(=O)O)NC(=O)[C@H](CC(C)C)NC(=O)CNC(=O)[C@@H](NC(=O)[C@H](CC(C)C)NC(=O)[C@@H](N)CCCNC(=N)N)CSSC[C@H](N)C(=O)N[C@@H]([C@@H](C)O)C(=O)N[C@@H](CC(=O)O)C(=O)NCC(=O)N[C@@H](C)C(=O)N[C@@H](CO)C(=O)N[C@@H](CCSC)C(=O)N[C@@H](CCCCN)C(=O)N[C@@H](CC(=O)O)C(=O)N[C@@H](CC(C)C)C(=O)N[C@@H](CO)C(=O)N[C@@H](C)C(=O)N[C@@H](CC(C)C)C(=O)N[C@H](C(=O)O)CSSC[C@@H](C(=O)N[C@@H](C)C(=O)N[C@@H](CO)C(=O)N[C@@H](CO)C(=O)N[C@@H](CCCNC(=N)N)C(=O)N[C@@H](Cc2c[nH]c3ccccc23)C(=O)O)NC1=O (I: H-RLCGLEYIRTVIYICASSRW-OH / II: H-CTDGASMKDLSALC-OH; disulfide I:3-II:1, I:15-II:14) |
| – | 8.32 nM | CC[C@H](C)[C@@H]1NC(=O)[C@H](Cc2ccc(O)cc2)NC(=O)[C@H]([C@@H](C)CC)NC(=O)[C@H](C(C)C)NC(=O)[C@H]([C@@H](C)O)NC(=O)[C@H](CCCNC(=N)N)NC(=O)[C@H]([C@@H](C)CC)NC(=O)[C@H](Cc2ccc(O)cc2)NC(=O)[C@H](CCC(=O)O)NC(=O)[C@H](CC(C)C)NC(=O)CNC(=O)[C@@H](N)CSSC[C@H](N)C(=O)N[C@@H]([C@@H](C)O)C(=O)N[C@@H](CC(=O)O)C(=O)NCC(=O)N[C@@H](C)C(=O)N[C@@H](CO)C(=O)N[C@@H](CCSC)C(=O)N[C@@H](CCCCN)C(=O)N[C@@H](CC(=O)O)C(=O)N[C@@H](CC(C)C)C(=O)N[C@@H](CO)C(=O)N[C@@H](C)C(=O)N[C@@H](CC(C)C)C(=O)N[C@H](C(=O)O)CSSC[C@@H](C(=O)N[C@@H](C)C(=O)N[C@@H](CO)C(=O)N[C@@H](CO)C(=O)N[C@@H](CCCNC(=N)N)C(=O)N[C@@H](Cc2c[nH]c3ccccc23)C(=O)O)NC1=O (I: H-CGLEYIRTVIYICASSRW-OH / II: H-CTDGASMKDLSALC-OH; disulfide I:1-II:1, I:13-II:14) |
| 34.7 nM | 11 nM | CC[C@H](C)[C@@H]1NC(=O)[C@H](Cc2ccc(O)cc2)NC(=O)[C@H]([C@@H](C)CC)NC(=O)[C@H](C(C)C)NC(=O)[C@H]([C@@H](C)O)NC(=O)[C@H](CCCNC(=N)N)NC(=O)[C@H]([C@@H](C)CC)NC(=O)[C@H](Cc2ccc(O)cc2)NC(=O)[C@H](CCC(=O)O)NC(=O)[C@H](CC(C)C)NC(=O)CNC(=O)[C@@H](NC(=O)[C@H](CC(C)C)NC(=O)[C@H](CCCNC(=N)N)NC(=O)[C@@H](NC(=O)[C@@H](N)CO)C(C)C)CSSC[C@H](N)C(=O)N[C@@H]([C@@H](C)O)C(=O)N[C@@H](CC(=O)O)C(=O)NCC(=O)N[C@@H](C)C(=O)N[C@@H](CO)C(=O)N[C@@H](CCSC)C(=O)N[C@@H](CCCCN)C(=O)N[C@@H](CC(=O)O)C(=O)N[C@@H](CC(C)C)C(=O)N[C@@H](CO)C(=O)N[C@@H](C)C(=O)N[C@@H](CC(C)C)C(=O)N[C@H](C(=O)O)CSSC[C@@H](C(=O)N[C@@H](C)C(=O)N[C@@H](CO)C(=O)N[C@@H](CO)C(=O)N[C@@H](CCCNC(=N)N)C(=O)N[C@@H](Cc2c[nH]c3ccccc23)C(=O)O)NC1=O (I: H-SVRLCGLEYIRTVIYICASSRW-OH / II: H-CTDGASMKDLSALC-OH; disulfide I:5-II:1, I:17-II:14) |
